Assay results from patent publication EP3981864A1, “DETERGENT COMPOSITION” (priority 2020, dated 2022).

How the values were obtained:
[1] = tested on: Gossypium raimondii αDOX (SEQ ID NO: 5), fatty acid alpha-dioxygenase, A0A0D2W0W0, N-terminal His-tag variant SEQ ID NO: 257; experiment: Alpha-dioxygenase activity assay (oxygen consumption, TON); format: biochemical; conditions: fatty acid 100 µM, enzyme 6 ppm, 50 mM HEPES pH 9.0, 37°C; initial rate of oxygen consumption / enzyme concentration
Text: (§1) Gossypium raimondii αDOX (SEQ ID NO: 5) is a fatty acid alpha-dioxygenase that converts fatty acids into the corresponding 2-hydroperoxy fatty acids and is included as an example of the present invention. A codon optimized gene (SEQ ID NO: 256) encoding for an alpha-dioxygenase variant (SEQ ID NO: 257), including an N-terminal amino acid sequence containing a His-tag was designed and synthesized by Genscript. After gene synthesis, the protein was expressed and purified. In brief, the complete synthetic gene sequence was subcloned into a pET30a vector using the NdeI/HindIII cloning sites. For heterologous expression, Escherichia coli BL21 (DE3) cells were transformed with the recombinant plasmid and a single colony was inoculated into LB medium containing kanamycin (50 mg/L). A pre-starter culture was then inoculated into flasks containing Magic Media (Thermo Fisher, Catalog # K6803) supplemented with kanamycin (50 mg/L) and incubated at 16 °C for 72 h. At an OD600nm = 0.5 - 1.0, 5-aminolevulinic acid (final concentration 0.5 mM) was added. Cells were harvested by centrifugation at 5000 rpm and 4°C and the pellet was lysed using a bacterial cell lysis buffer (B-PER - Themo Fisher, Waltham, MA). After centrifugation, the supernatant was collected, and the protein was purified by one-step purification using HisPur™ Ni-NTA Spin Columns (Thermo Scientific, Catalog # 88226) and standard protocols known in the art. The protein was concentrated using a 10 kDa MW cutoff Amicon Ultra centrifugal filter unit (Millipore Sigma, Catalog# UFC901024), followed by desalting using a disposable PD-10 desalting column (GE Healthcare Life Sciences, Catalog# 17085101) and a buffer containing 50 mM Tris-HCl, 500 mM NaCl, and 10% Glycerol at pH 8.0. […]
(§2) Reactions with alpha-dioxygenases were performed as follows. […] The reaction was incubated for up to 10 minutes at 37°C with 200 rpm agitation and the conversion was monitored using an oxygen sensor. The TON (in s-1) were calculated as the ratio between the initial rate of oxygen consumption (in µM/s) and the concentration of enzyme (in µM). […]

[2] = tested on: Citrus sinensis αDOX (SEQ ID NO: 11), fatty acid alpha-dioxygenase, A0A067FHE4, N-terminal His-tag variant SEQ ID NO: 269 (comparative); experiment: as above; format: biochemical; conditions: fatty acid 100 µM, enzyme 6 ppm, 50 mM HEPES pH 9.0, 37°C; initial rate of oxygen consumption / enzyme concentration
Text: as §1, with “Citrus sinensis αDOX” for “Gossypium raimondii αDOX”, “NO: 11)” for “NO: 5)”, “as a comparative” for “as an”, “NO: 268)” for “NO: 256)”, “NO: 269),” for “NO: 257),”
as §2

## CCCCCCCCCCCCCCCCCC(=O)O [Stearic Acid]
[1]
  Stearic Acid, TON: 1.68 s⁻¹
[2]
  Stearic Acid, TON: 0.00 s⁻¹

## CCCCCCCC/C=C\CCCCCCCC(=O)O [Oleic Acid]
[1]
  Oleic Acid, TON: 1.68 s⁻¹
[2]
  Oleic Acid, TON: 0.00 s⁻¹

## CCCCCCCCCCCCCCCC(=O)O [Palmitic Acid]
[1]
  Palmitic Acid, TON: 2.56 s⁻¹
[2]
  Palmitic Acid, TON: 0.29 s⁻¹
